According to patent US9078868B2, “Therapeutic agent for accelerating recovery of animal under medical treatment” (UNIVERSITY OF MIYAZAKI, priority 2010, dated 2015):
No end group written: not given here. *: point of attachment. Octanoyl = CCCCCCCC(=O)*

Test system: hospitalized animals (canines and felines) with poor physical conditions
Assay: Example 3-1: repeated dose of ghrelin (analyzed together with single dose animals), compiled by disease group
Type: in vivo
Design: key to Degree of anger or anxiety score after administration: 1 = calm/accustomed to staff … 5 = too violent to touch, bites
Details: for Activity (vigor) score after administration: before administration a score of 1, scale 1-7
Procedure: In these Examples, a canine-derived ghrelin (a peptide compound in which a side chain hydroxyl group of the serine residue at the 3rd position from the amino terminus is acylated with an n-octanoyl group in SEQ ID NO: 1) was used as ghrelin. The canine-derived ghrelin was chemically synthesized and then lyophilized, and a canine-derived ghrelin for administration containing 0.1, 0.3, 0.5, or 1 mg per vial of a canine-derived ghrelin was prepared.
To administer ghrelin to animals, the canine-derived ghrelin was dissolved to a concentration of 1 mg/2 mL in physiological saline and intravenously, subcutaneously, or intramuscularly injected after the dose was adjusted depending on the body weight.
The evaluation parameters used were activity (vigor), body temperature, hematology parameters (blood cell test values), serum biochemistry parameters (biochemical test values), the degree of anger or anxiety, and respiratory rate. […] The degree of anger or anxiety of an animal observed visually by an observer were also evaluated using the following criteria: 1. calm and accustomed to a health care professional, 2. able to be touched by but unaccustomed to a health care professional and restless, 3. wandering around or hiding in the kennel with anxiety, 4. able to be barely touched, and 5. too violent to be touched by a health care professional and tends to bite.
A canine-derived ghrelin was repeatedly administered intravenously or subcutaneously to each of the animals with poor physical conditions. The dose of intravenous administration was approximately 5 μg/kg or 10 μg/kg, and the dose of subcutaneous administration was approximately 100 μg/kg. The mean number of doses in repeated administration was approximately four times, and the maximum number of doses was 11 times. The administration period was one to six days.
Evaluation parameters evaluated before and after administration of ghrelin were appetite, quantity of meal, biochemical test values (GOT, GPT, BUN, CRE, CPK, CRP), blood cell test values (white blood cell [WBC], platelet [PLT]), body temperature, activity (vigor), skin, coat, wellness, the degree of anger or anxiety, respiratory rate, and others. These parameters were analyzed together with the results of the animals receiving a single dose (Examples 1 and 2). The analysis results were compiled by disease, such as renal dysfunction, tumor, fracture, and accident (see Table 3-1). Statistical analysis of values before and after administration was performed using a paired t-test.

[1] = fracture, accident, etc., 19 animals, single or repeated dose
[2] = fracture, accident, etc., *p < 0.05, **p < 0.01
[3] = gastrointestinal tract disease, 7 animals, single or repeated dose
[4] = genital disease, 29 animals, single or repeated dose
[5] = genital disease, *p < 0.05, **p < 0.01
[6] = infection or parasitism, 15 animals, single or repeated dose

GSS (n-octanoyl) FLSPEHQKLQQRKESKKPPAKLQPR (GSS(Octanoyl)FLSPEHQKLQQRKESKKPPAKLQPR; listed as Canis familiaris) [ghrelin, chemically synthesized, lyophilized]
BUN: animals improved/animals evaluated [1]: 6/7 | Body temperature: animals improved/animals evaluated [1]: 5/7 | CPK: animals improved/animals evaluated [1]: 2/2 | CRE: animals improved/animals evaluated [1]: 2/3 | Degree of anger: animals improved/animals evaluated [1]: 6/10 | GOT: animals improved/animals evaluated [1]: 6/6 | GPT: animals improved/animals evaluated [1]: 6/7 | PLT: animals improved/animals evaluated [1]: 4/8 | Vigor: animals improved/animals evaluated [1]: 13/16 | WBC: animals improved/animals evaluated [1]: 3/7 | Respiratory rate: animals improved/animals evaluated (fracture, accident, etc., 19 animals, single or repeated dose, #respiratory rate was stabilized in 2 of 2 animals): 2/2 | BUN: change after vs before administration (t-test) [2]: Decreased* | Body temperature: change after vs before administration (t-test) [2]: Decreased* | CPK: change after vs before administration (t-test) [2]: Decreased* | Degree of anger: change after vs before administration (t-test) [2]: Improved* | GOT: change after vs before administration (t-test) [2]: Decreased* | GPT: change after vs before administration (t-test) [2]: Decreased* | Vigor: change after vs before administration (t-test) [2]: Improved** | BUN value after administration (fractures, accidents, etc., before administration 18.3 mg/dL): 10.6 mg/dL | Body temperature after administration (fractures, accidents, etc., before administration 39.2° C.): 38.0 °C | CPK value after administration (fractures, accidents, etc., before administration 42.4 IU/L): 9.4 IU/L | Respiratory rate after administration (fractures, accidents, etc., before administration 100/min): 50 min⁻¹ | GOT value after administration (fractures, accidents, etc., before administration 996 IU/L): 22 IU/L | GPT value after administration (fractures, accidents, etc., before administration 1000 IU/L): 32 IU/L | Activity (vigor) score after administration (fractures, accidents, etc., example): 3 | Degree of anger or anxiety score after administration (fractures, accidents, etc., example, before administration a score of 5, scale 1-5): 1 | BUN: animals improved/animals evaluated [3]: 1/1 | Body temperature: animals improved/animals evaluated [3]: 2/3 | CPK: animals improved/animals evaluated [3]: 2/2 | Degree of anger: animals improved/animals evaluated [3]: 0/1 | GOT: animals improved/animals evaluated [3]: 3/3 | GPT: animals improved/animals evaluated [3]: 3/3 | PLT: animals improved/animals evaluated [3]: 0/1 | Vigor: animals improved/animals evaluated [3]: 5/5 | WBC: animals improved/animals evaluated [3]: 2/2 | Vigor: change after vs before administration (t-test) (gastrointestinal tract disease, *p < 0.05, **p < 0.01): Improved* | Activity (vigor) score after administration (gastrointestinal tract diseases, example): 5 | BUN: animals improved/animals evaluated [4]: 3/3 | Body temperature: animals improved/animals evaluated [4]: 11/11 | CRE: animals improved/animals evaluated [4]: 1/2 | CRP: animals improved/animals evaluated [4]: 5/5 | Degree of anger: animals improved/animals evaluated [4]: 2/8 | GOT: animals improved/animals evaluated [4]: 3/3 | GPT: animals improved/animals evaluated [4]: 4/4 | PLT: animals improved/animals evaluated [4]: 4/7 | Respiratory rate: animals improved/animals evaluated [4]: 1/1 | Vigor: animals improved/animals evaluated [4]: 13/15 | WBC: animals improved/animals evaluated [4]: 5/7 | BUN: change after vs before administration (t-test) [5]: Decreased* | Body temperature: change after vs before administration (t-test) [5]: Decreased** | CRP: change after vs before administration (t-test) [5]: Decreased* | Vigor: change after vs before administration (t-test) [5]: Improved** | BUN value after administration (genital diseases, before administration 31.5 mg/dL): 7.1 mg/dL | CRP value after administration (genital diseases, before administration 100 mg/dL): 16 mg/dL | Body temperature after administration (genital diseases, before administration 40.1° C.): 38.1 °C | Activity (vigor) score after administration (genital diseases, example): 3 | BUN: animals improved/animals evaluated [6]: 2/2 | Body temperature: animals improved/animals evaluated [6]: 3/3 | CPK: animals improved/animals evaluated [6]: 1/1 | CRE: animals improved/animals evaluated [6]: 1/1 | Degree of anger: animals improved/animals evaluated [6]: 0/2 | GOT: animals improved/animals evaluated [6]: 1/2 | GPT: animals improved/animals evaluated [6]: 3/4 | PLT: animals improved/animals evaluated [6]: 3/4
